Values after ≈ are worked out from the molar mass of the structure shown. Active and inactive are the calls of the source. The calls are words filed in the database; no cut-off is given here.
Legend:
Cell membrane [1] = experiment: Induction of outer membrane permeabilization in Escherichia coli KCTC 1682 assessed as increase in fluorescence intensity at 2 to 8 ug/ml by NPN staining based analysis; settings: dose 2-8 µg/ml
Erythrocyte = experiment: Hemolytic activity in sheep RBC assessed as minimal hemolytic concentration causing 10% hemolysis incubated for 1 hr by ELISA; assay type: toxicity, cell-based, Ovis aries
Enterococcus faecium = experiment: Antibacterial activity against vancomycin-resistant Enterococcus faecium ATCC 51559 strain assessed as bacterial growth inhibition measured at 18 to 24 hrs by microdilution assay; assay type: functional; settings: time 18-24 hrs
Escherichia coli [2] = experiment: Antibacterial activity against Escherichia coli KCTC 1682 strain assessed as bacterial growth inhibition measured after 6 hrs in presence of trypsin by radial diffusion assay; assay type: functional, organism-based
Escherichia coli [3] = experiment: Antibacterial activity against Escherichia coli KCTC 1682 strain assessed as bacterial growth inhibition measured after 6 hrs in presence of chymotrypsin by radial diffusion assay; assay type: functional, organism-based
Escherichia coli [4] = experiment: Antibacterial activity against Escherichia coli KCTC 1682 strain assessed as bacterial growth inhibition measured after 6 hrs in presence of pepsin by radial diffusion assay; assay type: functional, organism-based
Escherichia coli [5] = experiment: Antibacterial activity against Escherichia coli KCTC 1682 strain assessed as bacterial growth inhibition measured after 6 hrs in presence of proteinase K by radial diffusion assay; assay type: functional, organism-based
Cell membrane [6] = experiment: Induction of cell membrane depolarization in Staphylococcus aureus assessed as increase in fluorescence intensity at 2 times MIC by DiSC3(5) dye based fluorescence assay
Cell membrane [7] = experiment: Induction of cell membrane depolarization in Staphylococcus aureus assessed as fluorescence intensity at 2 to 16 times MIC by DiSC3(5) dye based fluorescence assay; assay type: subcellular
Cell membrane [8] = experiment: Induction of cell membrane depolarization in Staphylococcus aureus assessed as increase in fluorescence intensity at 2 times MIC by SYTOX green staining based analysis
Cell membrane [9] = experiment: Induction of inner membrane permeabilization in Escherichia coli ML-35 assessed as increase in […] at 2 times MIC by ONPG staining based analysis
Cell membrane [10] = experiment: Induction of cell membrane damage in Escherichia coli KCTC 1682 assessed as increase in fluorescent intensity at 2 times MIC incubated for 30 mins by PI staining based flow cytometry assay (reference value: 9.79 %); assay type: subcellular

## CC[C@H](C)[C@H](NC(=O)CN)C(=O)NCC(=O)N[C@@H](C)C(=O)N[C@H](C(=O)N[C@@H](CC(C)C)C(=O)N[C@@H](CCCCN)C(=O)N[C@H](C(=O)N[C@@H](CC(C)C)C(=O)N[C@H](C(=O)N[C@H](C(=O)NCC(=O)N[C@@H](CC(C)C)C(=O)N1CCC[C@H]1C(=O)N[C@@H](C)C(=O)N[C@@H](CC(C)C)C(=O)N[C@H](C(=O)N[C@@H](CO)C(=O)N[C@@H](Cc1c[nH]c2ccccc12)C(=O)N[C@H](C(=O)N[C@@H](CCCCN)C(=O)N[C@@H](CCCNC(=N)N)C(=O)N[C@@H](CCCCN)C(=O)N[C@@H](CCCNC(=N)N)C(=O)N[C@@H](CCC(N)=O)C(=O)N[C@@H](CCC(N)=O)C(N)=O)[C@@H](C)CC)[C@@H](C)CC)[C@@H](C)O)[C@@H](C)O)C(C)C)C(C)C [MELITTIN]
Cell membrane [1]
  Activity: Active
Erythrocyte
  MHC: 3.2 µM
Enterococcus faecium
  MIC: 5.6 µM (≈ 15.9 µg/mL)
Escherichia coli [2]
  Activity: inactive
Escherichia coli [3]
  Activity: inactive
Escherichia coli [4]
  Activity: inactive
Escherichia coli [5]
  Activity: inactive
Cell membrane [6]
  Activity: Active
Cell membrane [7]
  Activity: inactive
Cell membrane [8]
  Activity: Active
Cell membrane [9]
  Activity: Active
Cell membrane [10]
  Flu intensity: 64.2%

Reference: ChEMBL document CHEMBL5331051, “Cationic, amphipathic small molecules based on a triazine-piperazine-triazine scaffold as a new class of antimicrobial agents” (Eur J Med Chem, 2022)
